Data as given in patent publication US8642585B2, “Indanyloxydihydrobenzofuranylacetic acids” (Boehringer Ingelheim International GmbH, priority 2012, dated 2014).

Target: human GPR40 receptor (Homo sapiens, UniProt O14842)
Assay: Assay II: IP1 accumulation (IPOne HTRF) in 1321N1 cells stably expressing human GPR40
Format: cell-based
Conditions: 1321N1 cells expressing human GPR40, stimulation 1 h at 37° C., 5% CO2, LiCl 50 mM
Protocol: IP1 accumulation measurements using the IPOne assay system—1321N1 cells stably expressing human GPR40 receptor (Euroscreen, Belgium) are seeded 24 h before the assay in white 384-well plates in culture medium containing 10% FCS, 1% Na-Pyruvate and 400 μg/mL G418. IP1 is assayed according to the manufacturers description (Cisbio Bioassays, France). In brief, the assay is started by substitution of the culture medium by stimulation buffer (Hepes 10 mM, CaCl2 1 mM, MgCl2 0.5 mM, KCl 4.2 mM, NaCl 146 mM, glucose 5.5 mM and LiCl 50 mM, pH 7.4). Cells are stimulated for 1 h at 37° C., 5% CO2 by addition of the compounds that are diluted in stimulation buffer containing LiCl. Assays are stopped by adding HTRF-conjugates (IP1-d2 and Anti-IP1 cryptate Tb) and lysis buffer, provided by the manufacturer. After an incubation time of 1 h at room temperature plates are measured using an EnVision™, Perkin Elmer. The obtained fluorescence ratios at 665/615 nM are then used to calculate the pEC50 values using Assay Explorer 3.3 Software (Accelrys, Inc.) by interpolation using an IP1 reference curve and subsequent sigmoidal curve fitting allowing for a variable hill slope.

Chain of human GPR40 receptor (O14842 whole entry): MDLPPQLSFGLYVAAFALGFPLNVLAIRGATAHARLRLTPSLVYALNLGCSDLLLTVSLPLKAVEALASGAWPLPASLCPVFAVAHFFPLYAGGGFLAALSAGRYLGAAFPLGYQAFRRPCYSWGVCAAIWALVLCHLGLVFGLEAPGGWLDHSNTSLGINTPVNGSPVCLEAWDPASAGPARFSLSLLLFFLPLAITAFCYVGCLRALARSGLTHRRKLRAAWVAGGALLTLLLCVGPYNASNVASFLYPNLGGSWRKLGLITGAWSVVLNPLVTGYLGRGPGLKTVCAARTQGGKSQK

Row | SMILES | EC50 [nM]
1 | CC(=O)NCCOc1cc(C)c(-c2ccc(F)c3c2CC[C@H]3Oc2ccc3c(c2)OC[C@H]3CC(=O)O)c(C)c1 [Example 73, 2-((S)-6-((R)-4-(4-(2-Acetamidoethoxy)-2,6-dimethylphenyl)-7-fluoro-2,3-dihydro-1H-inden-1-yloxy)-2,3-dihydrobenzofuran-3-yl)acetic acid] | 13
2 | Cc1cc(CCNS(C)(=O)=O)cc(C)c1-c1ccc(F)c2c1CC[C@H]2Oc1ccc2c(c1)OC[C@H]2CC(=O)O [Example 74, 2-((S)-6-((R)-4-(2,6-dimethyl-4-(2-(methylsulfonamido)ethyl)phenyl)-7-fluoro-2,3-dihydro-1H-inden-1-yloxy)-2,3-dihydrobenzofuran-3-yl)acetic acid] | 40
3 | Cc1cc(OCC2(O)CC2)cc(C)c1-c1ccc(F)c2c1CC[C@H]2Oc1ccc2c(c1)OC[C@H]2CC(=O)O [Example 75, 2-((S)-6-((R)-7-Fluoro-4-(4-((1-hydroxycyclopropyl)methoxy)-2,6-dimethylphenyl)-2,3-dihydro-1H-inden-1-yloxy)-2,3-dihydrobenzofuran-3-yl)acetic acid] | 17
4 | Cc1cc(OC2CCN(C)C2=O)cc(C)c1-c1ccc(F)c2c1CC[C@H]2Oc1ccc2c(c1)OC[C@H]2CC(=O)O (stereo partly drawn) [Example 76, 2-((3S)-6-((1R)-4-(2,6-Dimethyl-4-(1-methyl-2-oxopyrrolidin-3-yloxy)phenyl)-7-fluoro-2,3-dihydro-1H-inden-1-yloxy)-2,3-dihydrobenzofuran-3-yl)acetic acid] | 27
5 | Cc1cc(OCC(C)(C)CS(C)(=O)=O)cc(C)c1-c1ccc(F)c2c1CC[C@H]2Oc1ccc2c(c1)OC[C@H]2CC(=O)O [Example 77, 2-((S)-6-((R)-4-(4-(2,2-Dimethyl-3-(methylsulfonyl)propoxy)-2,6-dimethylphenyl)-7-fluoro-2,3-dihydro-1H-inden-1-yloxy)-2,3-dihydrobenzofuran-3-yl)acetic acid] | 10
6 | Cc1cc(C2CCOCC2)cc(C)c1-c1ccc(F)c2c1CC[C@H]2Oc1ccc2c(c1)OC[C@H]2CC(=O)O [Example 80, 2-((S)-6-((R)-4-(2,6-Dimethyl-4-(tetrahydro-2H-pyran-4-yl)phenyl)-7-fluoro-2,3-dihydro-1H-inden-1-yloxy)-2,3-dihydrobenzofuran-3-yl)acetic acid] | 11
7 | Cc1cc(C2=CC(=O)OCC2)cc(C)c1-c1ccc(F)c2c1CC[C@H]2Oc1ccc2c(c1)OC[C@H]2CC(=O)O [Example 81, 2-((S)-6-((R)-4-(2,6-Dimethyl-4-(6-oxo-3,6-dihydro-2H-pyran-4-yl)phenyl)-7-fluoro-2,3-dihydro-1H-inden-1-yloxy)-2,3-dihydrobenzofuran-3-yl)acetic acid] | 8
8 | COCc1cc(OCC2(C)COC2)cc(COC)c1-c1ccc(F)c2c1CC[C@H]2Oc1ccc2c(c1)OC[C@H]2CC(=O)O [Example 82, 2-((S)-6-((R)-4-(2,6-Bis(methoxymethyl)-4-((3-methyloxetan-3-yl)methoxy)phenyl)-7-fluoro-2,3-dihydro-1H-inden-1-yloxy)-2,3-dihydrobenzofuran-3-yl)acetic acid] | 14
9 | Cc1cc(-c2cnn(CC(C)(C)O)c2)cc(C)c1-c1ccc(F)c2c1CC[C@H]2Oc1ccc2c(c1)OC[C@H]2CC(=O)O [Example 83, 2-((S)-6-((R)-7-Fluoro-4-(4-(1-(2-hydroxy-2-methylpropyl)-1H-pyrazol-4-yl)-2,6-dimethylphenyl)-2,3-dihydro-1H-inden-1-yloxy)-2,3-dihydrobenzofuran-3-yl)acetic acid] | 6
10 | Cc1cc(-c2ccn(C)c(=O)c2)cc(C)c1-c1ccc(F)c2c1CC[C@H]2Oc1ccc2c(c1)OC[C@H]2CC(=O)O [Example 84, 2-((S)-6-((R)-4-(2,6-Dimethyl-4-(1-methyl-2-oxo-1,2-dihydropyridin-4-yl)phenyl)-7-fluoro-2,3-dihydro-1H-inden-1-yloxy)-2,3-dihydrobenzofuran-3-yl)acetic acid] | 9
11 | Cc1cc(-c2ccc(=O)n(C)c2)cc(C)c1-c1ccc(F)c2c1CC[C@H]2Oc1ccc2c(c1)OC[C@H]2CC(=O)O [Example 85, 2-((S)-6-((R)-4-(2,6-Dimethyl-4-(1-methyl-6-oxo-1,6-dihydropyridin-3-yl)phenyl)-7-fluoro-2,3-dihydro-1H-inden-1-yloxy)-2,3-dihydrobenzofuran-3-yl)acetic acid] | 7
12 | Cc1cc(-n2cncn2)cc(C)c1-c1ccc(F)c2c1CC[C@H]2Oc1ccc2c(c1)OC[C@H]2CC(=O)O [Example 86, 2-((S)-6-((R)-4-(2,6-Dimethyl-4-(1H-1,2,4-triazol-1-yl)phenyl)-7-fluoro-2,3-dihydro-1H-inden-1-yloxy)-2,3-dihydrobenzofuran-3-yl)acetic acid] | 8
13 | Cc1cc(C2CCOC2)cc(C)c1-c1ccc(F)c2c1CC[C@H]2Oc1ccc2c(c1)OC[C@H]2CC(=O)O (stereo partly drawn) [Example 87, 2-((3S)-6-((1R)-4-(2,6-Dimethyl-4-(tetrahydrofuran-3-yl)phenyl)-7-fluoro-2,3-dihydro-1H-inden-1-yloxy)-2,3-dihydrobenzofuran-3-yl)acetic acid] | 24
14 | Cc1cc(-c2cc(=O)n(C)cn2)cc(C)c1-c1ccc(F)c2c1CC[C@H]2Oc1ccc2c(c1)OC[C@H]2CC(=O)O [Example 88, 2-((S)-6-((R)-4-(2,6-Dimethyl-4-(1-methyl-6-oxo-1,6-dihydropyrimidin-4-yl)phenyl)-7-fluoro-2,3-dihydro-1H-inden-1-yloxy)-2,3-dihydrobenzofuran-3-yl)acetic acid] | 3
15 | Cc1cc(-c2cnc(=O)n(C)c2)cc(C)c1-c1ccc(F)c2c1CC[C@H]2Oc1ccc2c(c1)OC[C@H]2CC(=O)O [Example 89, 2-((S)-6-((R)-4-(2,6-Dimethyl-4-(1-methyl-2-oxo-1,2-dihydropyrimidin-5-yl)phenyl)-7-fluoro-2,3-dihydro-1H-inden-1-yloxy)-2,3-dihydrobenzofuran-3-yl)acetic acid] | 9
16 | Cc1cc(-c2ccnnc2)cc(C)c1-c1ccc(F)c2c1CC[C@H]2Oc1ccc2c(c1)OC[C@H]2CC(=O)O [Example 90, 2-((S)-6-((R)-4-(2,6-Dimethyl-4-(pyridazin-4-yl)phenyl)-7-fluoro-2,3-dihydro-1H-inden-1-yloxy)-2,3-dihydrobenzofuran-3-yl)acetic acid] | 5
17 | Cc1cc(-c2ccncn2)cc(C)c1-c1ccc(F)c2c1CC[C@H]2Oc1ccc2c(c1)OC[C@H]2CC(=O)O [Example 91, 2-((S)-6-((R)-4-(2,6-Dimethyl-4-(pyrimidin-4-yl)phenyl)-7-fluoro-2,3-dihydro-1H-inden-1-yloxy)-2,3-dihydrobenzofuran-3-yl)acetic acid] | 3
18 | Cc1cc(-c2cnn(C)c(=O)c2)cc(C)c1-c1ccc(F)c2c1CC[C@H]2Oc1ccc2c(c1)OC[C@H]2CC(=O)O [Example 92, 2-((S)-6-((R)-4-(2,6-Dimethyl-4-(1-methyl-6-oxo-1,6-dihydropyridazin-4-yl)phenyl)-7-fluoro-2,3-dihydro-1H-inden-1-yloxy)-2,3-dihydrobenzofuran-3-yl)acetic acid] | 5
19 | COc1nccc(-c2cc(C)c(-c3ccc(F)c4c3CC[C@H]4Oc3ccc4c(c3)OC[C@H]4CC(=O)O)c(C)c2)n1 [Example 93] | 4
20 | Cc1cc(-c2nnn[nH]2)cc(C)c1-c1ccc(F)c2c1CC[C@H]2Oc1ccc2c(c1)OC[C@H]2CC(=O)O [Example 94, 2-((S)-6-((R)-4-(2,6-Dimethyl-4-(1H-tetrazol-5-yl)phenyl)-7-fluoro-2,3-dihydro-1H-inden-1-yloxy)-2,3-dihydrobenzofuran-3-yl)acetic acid] | 82
21 | Cc1cc(-c2nnn(C)n2)cc(C)c1-c1ccc(F)c2c1CC[C@H]2Oc1ccc2c(c1)OC[C@H]2CC(=O)O [Example 95, 2-((S)-6-((R)-4-(2,6-Dimethyl-4-(2-methyl-2H-tetrazol-5-yl)phenyl)-7-fluoro-2,3-dihydro-1H-inden-1-yloxy)-2,3-dihydrobenzofuran-3-yl)acetic acid] | 3
22 | Cc1cc(-c2nnnn2C)cc(C)c1-c1ccc(F)c2c1CC[C@H]2Oc1ccc2c(c1)OC[C@H]2CC(=O)O [Example 96, 2-((S)-6-((R)-4-(2,6-Dimethyl-4-(1-methyl-1H-tetrazol-5-yl)phenyl)-7-fluoro-2,3-dihydro-1H-inden-1-yloxy)-2,3-dihydrobenzofuran-3-yl)acetic acid] | 20
23 | Cc1cc(-c2ccn(C)c(=O)n2)cc(C)c1-c1ccc(F)c2c1CC[C@H]2Oc1ccc2c(c1)OC[C@H]2CC(=O)O [Example 97, 2-((S)-6-((R)-4-(2,6-Dimethyl-4-(1-methyl-2-oxo-1,2-dihydropyrimidin-4-yl)phenyl)-7-fluoro-2,3-dihydro-1H-inden-1-yloxy)-2,3-dihydrobenzofuran-3-yl)acetic acid] | 5
24 | Cc1cc(-c2nnn(CC(C)(C)O)n2)cc(C)c1-c1ccc(F)c2c1CC[C@H]2Oc1ccc2c(c1)OC[C@H]2CC(=O)O [Example 98, 2-((S)-6-((R)-7-Fluoro-4-(4-(2-(2-hydroxy-2-methylpropyl)-2H-tetrazol-5-yl)-2,6-dimethylphenyl)-2,3-dihydro-1H-inden-1-yloxy)-2,3-dihydrobenzofuran-3-yl)acetic acid] | 3
